Assay results published in paper PMC7822874, “Chemoprotective antimalarials identified through quantitative high-throughput screening of Plasmodium blood and liver stage parasites” (Scientific Reports, 2021).
Values joined by “and” are separate entries in the source; they are usually repeats but may differ in a detail not shown here. Identical values can stand only once. Like-named read-outs stand apart in the source and are kept apart here.

Tests used:
[1] = test system: luciferase-expressing P. berghei liver stage parasites in HepG2 cells; assay: Inhibition of liver-stage development assay (ILSDA), Method 2 (WRAIR, 96-well); type: cell-based, Plasmodium berghei; details: for Max Resp (signal direction of the dose response): Decrease = decreasing P. berghei viability with dose, Increase = increasing signal, Inactive = no dose response; for Activity direction (Decrease / Inactive): P. berghei liver stage
[2] = test system: Plasmodium falciparum Dd2 asexual blood stage parasites; assay: microbe, parasite or virus in culture; parameters: species or system Plasmodium falciparum Dd2 in human erythrocytes; single determination (one 11-point concentration-response curve); details: Plasmodium falciparum, DD2, Erythrocyte, 72 h
[3] = test system: T1, Plasmodium falciparum Dd2-attB (parental line), asexual blood stages; assay: microbe, parasite or virus in culture; parameters: replicate k of 3 (each line is one of three independent assays; the three lines of one compound and parasite line follow each other); details: n = 1; for Individual replicates / Log AC50 (M): 72 h; for AC50: Plasmodium falciparum, DD2, 72 h, read-out: Individual replicates / Log AC50 (converted)
T1 construct: Dd2-attB, the isogenic parental line
Summary of the method: (§1)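 Three independent runs, compound subset only; parental vs ScDHODH line compared by two-sided Student's t-test.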

[4] = test system: P. berghei-ANKA-GFP-LucCON liver stage parasites in HepG2-A16-CD81EGFP cells; assay: P. berghei liver stage Pb-Luc assay, Method 1 (UCSD, 1536-well); type: cell-based, Plasmodium berghei; details: for AC50 / Max Resp (signal direction of the dose response) / Log AC50 (M): Method 1; for Max Resp (signal direction of the dose response): Decrease = decreasing P. berghei viability with dose, Increase = increasing signal, Inactive = no dose response; for activity at 1 µM / activity at 3 µM: 48 h, average of 2 wells, 1536-well plate; for activity at 1 µM: nominal 1 uM (10 mM stock), […] for 15 mM, 1.2 uM for 12 mM, 2 uM for 20 mM stock; for activity at 3 µM: nominal 3 uM (10 mM stock), 4.5 uM for 15 mM, 3.6 uM for 12 mM, 6 uM for 20 mM stock
[5] = test system: T2, Plasmodium falciparum Dd2-attB-ScDHODH (transgenic line expressing yeast DHODH), asexual blood stages; assay: organism not typed; parameters: replicate k of 3 (each line is one of three independent assays; the three lines of one compound and parasite line follow each other); details: 72 h, n = 1; for AC50: read-out: Individual replicates / Log AC50 (converted)
T2 construct: Dd2-attB-ScDHODH, the transgenic line that expresses yeast DHODH
Summary of the method: as §1

in vitro = details: human
[6] = Method 2, Hill fit, 50% of maximum activity response, read-out: AC50
[7] = Method 2, log10 of molar AC50 from Hill fit
[8] = Plasmodium berghei, Hill fit, 50% of maximum activity response, read-out: AC50
[9] = Plasmodium berghei, log10 of molar AC50 from Hill fit, read-out: Log AC50 (converted)
[10] = Hill fit, 50% of maximum activity response, read-out: AC50
[11] = log10 of molar AC50 from Hill fit
[12] = Plasmodium berghei, repeat 1, read-out: Pb-Luc signal, 1 uM, repeat 1
[13] = Plasmodium berghei, repeat 2, read-out: Pb-Luc signal, 1 uM, repeat 2
[14] = Plasmodium berghei, repeat 3, read-out: Pb-Luc signal, 1 uM, repeat 3
[15] = Plasmodium berghei, repeat 1, read-out: Pb-Luc signal, 3 uM, repeat 1
[16] = Plasmodium berghei, repeat 2, read-out: Pb-Luc signal, 3 uM, repeat 2
[17] = Plasmodium berghei, repeat 3, read-out: Pb-Luc signal, 3 uM, repeat 3
[18] = HepG2-A16-CD81EGFP cells, uninfected
[19] = nominal 1 uM (10 mM stock), […] for 15 mM, 1.2 uM for 12 mM, 2 uM for 20 mM stock, average of 2 wells, repeat 2
[20] = nominal 3 uM (10 mM stock), 4.5 uM for 15 mM, 3.6 uM for 12 mM, 6 uM for 20 mM stock, average of 2 wells, repeat 2
[21] = Plasmodium berghei, HepG2, P. berghei liver stage, Method 2, dose response, read-out: AC50
[22] = Plasmodium berghei, HepG2, P. berghei liver stage, Method 2, dose response, read-out: Log AC50 (converted)

Structure (SMILES) | Max Resp (signal direction of the dose response) ([1]; Method 2) | AC50 [1, 6] [nM] | Log AC50 (M) [1, 7] [M] | AC50 ([2]; read-out: AC50) [nM] | Individual replicates / Log AC50 (M) [3] | AC50 [4, 8] [nM] | AC50 [4, 9] [nM] | Individual replicates / Log AC50 (M) [5] | Activity direction (Decrease / Inactive) ([1]; Method 2, dose response) | Max Resp (signal direction of the dose response) [4] | activity at 1 µM [4, 12] [%] | activity at 1 µM [4, 13] [%] | activity at 1 µM [4, 14] [%] | activity at 3 µM [4, 15] [%] | activity at 3 µM [4, 16] [%] | activity at 3 µM [4, 17] [%] | viability at 48 h, 1 µM (in vitro; [18]) [%] | viability at 48 h, 3 µM (in vitro; [18]) [%] | HepG2 viability signal, 1 uM, repeat 2 (HepG2-A16-CD81EGFP cells; [19]) [%] | other results
Cc1ccc(C)c(NC2=C(c3ccc(C(F)(F)F)cc3)C(=O)c3ccccc32)c1 [NCGC00107302-01] | Decrease | 501 | -6.300 | 4730 | -5.6986 Log AC50 (M) and -5.7486 Log AC50 (M) | 1580 | 1580 | -4.9986 Log AC50 (M) and -5.0486 Log AC50 (M) | – | – | – | – | – | – | – | – | – | – | – | AC50 [3]: 1130 nM; AC50 [5]: 7.97 µM
CCCN1C(CC(C)C)=N[S+](=O)([O-])c2cc(NC(=O)c3ccccc3Cl)ccc21 [NCGC00473218-01] | – | – | – | – | -5.5486 Log AC50 (M) and -5.3986 Log AC50 (M) and -5.1986 Log AC50 (M) | – | – | -5.0486 Log AC50 (M) | Inactive | – | – | – | – | – | – | – | – | – | – | AC50 [5]: 7.97 µM
CCC(CC)c1cc([C@H]2CN3CC[C@H]2C[C@@H]3CN[S+](=O)([O-])c2cccs2)nc(-c2ccncc2)n1 [NCGC00396883-01] | Decrease | – | – | 2370 | – | 501 | 501 | – | – | Decrease | 64 | 69 | 109 | 37.8 | 32.5 | 35.3 | – | – | – | viability at 48 h, 1 µM (in vitro): 99.7%; viability at 48 h, 3 µM (in vitro): 102%; AC50 ([1]; Plasmodium berghei, HepG2, Method 2, Hill fit, 50% of maximum activity response, read-out: AC50): 631 nM; AC50 ([1]; Plasmodium berghei, HepG2, Method 2, log10 of molar AC50 from Hill fit, read-out: Log AC50 (converted)): 631 nM; HepG2 viability signal, 1 uM, repeat 2 (HepG2-A16-CD81EGFP cells; human, 48 h, 1 µM): 98.83%; HepG2 viability signal, 3 uM, repeat 2 (HepG2-A16-CD81EGFP cells; human, 48 h, 3 µM): 99.98%; AC50 [4, 10]: 708 nM; Log AC50 (M) [4, 11]: -6.150 M
Cc1ccc(NC2=C(c3ccc(C(F)(F)F)cc3)C(=O)c3ccccc32)cc1F [NCGC00107266-01] | Decrease | 79 | -7.100 | 1880 | -6.2486 Log AC50 (M) and -6.2986 Log AC50 (M) | 1260 | 1260 | -5.4986 Log AC50 (M) and -5.1986 Log AC50 (M) and -5.3986 Log AC50 (M) | – | Decrease | – | – | – | – | – | – | – | – | – | AC50 [3]: 399 nM; AC50 [4, 10]: 1410 nM; Log AC50 (M) [4, 11]: -5.850 M
COc1ccc(-c2ccc3ncc(Nc4ccc(C(N)=O)cc4)n3n2)cc1OC [NCGC00412552-01] | Inactive | – | – | 2430 | – | – | – | – | – | Inactive | 38.8 | 64.3 | 74.5 | 2.42 | 48.9 | 27.1 | 100 | 105 | 102.54 | HepG2 viability signal, 3 uM, repeat 2 (HepG2-A16-CD81EGFP cells; [20]): 100.89%
COc1ccc(NC2=C(c3ccc(C(F)(F)F)cc3)C(=O)c3ccccc32)cc1 [NCGC00107310-01] | Decrease | 141 | -6.850 | 2110 | -6.3486 Log AC50 (M) and -6.1486 Log AC50 (M) and -6.1986 Log AC50 (M) | 1780 | 1780 | -5.7986 Log AC50 (M) and -5.8986 Log AC50 (M) (2×) | – | Decrease | – | – | – | – | – | – | – | – | – | –
COc1ccc(Nc2cnc3ccc(-c4ccc(OC)c(OC)c4)nn23)cc1 [NCGC00412624-01] | – | – | – | 1720 | – | 1410 | 1410 | – | Inactive | Decrease | 3.08 | 5.39 | 3.47 | -0.46 | -0.86 | -0.14 | 101 | 109 | 100.79 | HepG2 viability signal, 3 uM, repeat 2 (HepG2-A16-CD81EGFP cells; [20]): 112.23%
Cc1cc(C)cc(C(=O)Nc2ccc3c(N4CCCC4)ncnc3c2)c1 [NCGC00425487-01] | – | – | – | 2370 | – | 1000 | 1000 | – | Decrease | – | 67.5 | 99.6 | 77.5 | 25.9 | 34.2 | 15.9 | 89 | 27.1 | 92.65 | AC50 [1, 21]: 15800 nM; AC50 [1, 22]: 15800 nM; HepG2 viability signal, 3 uM, repeat 2 (HepG2-A16-CD81EGFP cells; [20]): 36.60%
Cc1ccccc1[S+](=O)([O-])N1CCCC(CCC(=O)NCCN(C)C2CCCCC2)C1 (centres unmarked) [NCGC00425745-01] | – | – | – | – | – | 1780 | 1780 | – | Decrease | – | 72 | 61 | 64.9 | 42 | 57.8 | 54.8 | 112 | 109 | – | AC50 [1, 21]: 562 nM; AC50 [1, 22]: 562 nM; AC50 [2]: 8410 nM; HepG2 viability signal, 1 uM, repeat 2 (HepG2-A16-CD81EGFP cells): 108.18%; HepG2 viability signal, 3 uM, repeat 2 (HepG2-A16-CD81EGFP cells): 103.93%
Cc1ccc(NC2=C(c3ccc(C(F)(F)F)cc3)C(=O)c3ccccc32)cc1C [NCGC00107300-01] | Decrease | 398 | -6.400 | 2110 | -5.7486 Log AC50 (M) and -5.5986 Log AC50 (M) | 447 | 447 | -5.4986 Log AC50 (M) and -5.2486 Log AC50 (M) | – | Decrease | – | – | – | – | – | – | – | – | – | AC50 [3]: 1590 nM; AC50 [4, 10]: 794 nM; Log AC50 (M) [4, 11]: -6.100 M; AC50 [5]: 3.99 µM
CCC(CC)c1cc([C@H]2CN3CC[C@H]2C[C@@H]3CNC(=O)COc2ccccc2)nc(-c2ccncc2)n1 [NCGC00420983-01] | – | – | – | 1500 | – | – | – | – | Inactive | Decrease | 55.4 | 47 | 38 | 33.3 | 38.2 | 41 | 102 | 101 | 97.05 | viability at 48 h, 3 µM (in vitro): 101%
